Assay results reported in US20130142882A1, “METHODS AND COMPOSITIONS FOR TREATMENT, MODIFICATION AND MANAGEMENT OF BONE CANCER PAIN” (GOLDEN BIOTECHNOLOGY CORPORATION, priority 2011, published 2013).
Values joined by “and” are separate entries in the source; they are usually repeats but may differ in a detail not shown here. Identical values can stand only once.

Test system: rat model of bone cancer pain (Walker 256 rat mammary gland carcinoma cells injected into the right tibia)
Assay: Mechanical allodynia (Von Frey test) in a rat model of bone cancer pain
Format: in vivo, Rat (Sprague-Dawley)
Description: The objective of this study was to assess the potential anti-nociceptive and anti-tumourigenic effects of Compound 1, at doses of 15, 30 and 45 mg/kg, in an animal model of bone cancer pain. Metastasis of cancer cells to the bone was modeled by injecting Walker 256 rat mammary gland carcinoma cells into the medullary cavity of the right tibia (Mao-Yinga, et al. A rat model of bone cancer pain induced by intra-tibia inoculation of Walker 256 mammary gland carcinoma cells. Biochem Biophys Res Commun 2006; 345: 1292-1298). The development of mechanical allodynia was monitored using an established behavioural test (Von Frey test). Treatment administration was chronic, from the day of surgery, and administered twice daily for 21 days to determine whether there was a prophylactic effect on the development of mechanical allodynia. Zoledronic acid was used as a reference substance. No regulatory test guidelines were applicable to this study.
Rats have been studied in this model of bone cancer pain. The route of administration of Compound 1 and vehicle was oral. The doses of Compound 1 were 15, 30 and 45 mg/kg, twice a day (approximately 10 h apart) for 21 days.
The dose of zoledronic acid was 30 μg/kg, as a single administration, every second day from the day of surgery, based on historical data. The route of administration of zoledronic acid was subcutaneous.
The dose volume for test substance and vehicle treatments was 5 mL/kg. The vehicle for Compound 1 was corn oil. Each rat allocated to test substance or vehicle treatments received an oral dose, by gavage, twice daily (approximately 8 am and 6 pm) for 21 consecutive days. The dose volume for the reference substance treatment was 1 mL/kg. Each rat allocated to reference substance treatment received a single subcutaneous dose, by injection (approximately 8 am) every second day from the day of surgery.
Cell preparation. Walker 256 rat mammary gland carcinoma cells (obtained from the American Type Culture Collection (ATCC)) were harvested from sub-confluent cultures growing in vitro and the number of viable cells determined. Cells were then re-suspended in sterile phosphate buffered saline (PBS) at a concentration of 4×10^5 cells. Female Sprague-Dawley rats were intratibially injected in the right leg with 4×10^5 Walker 256 rat mammary gland carcinoma cells in a volume of 6 μL as detailed in Surgical procedure below.
Baseline behavioural testing. The rats were moved to the procedure room 5 days prior to behavioural testing. The rats were then housed, dosed and observed in the procedure room. The behavioural test was performed on all rats on 2 separate occasions prior to surgery, to establish baseline values. Pre-surgery baseline values were taken as the data from the final (second) day of testing (the data from the first day of testing was not included but classed as part of the acclimatisation).
Mechanical allodynia (Von Frey test): Each animal was placed in a wire mesh cage and a series of Von Frey filaments were applied to the plantar surface of the hind paw, from below. The filaments were applied in ascending order (starting with the weakest force), and the withdrawal threshold for both the left and right hind paws were evaluated. Each filament was indented on the mid-plantar surface of the foot to the point where it just started to bend; this was repeated approximately 8 to 10 times per filament at a frequency of approximately 1 Hz. The withdrawal threshold was defined as the lowest force of two or more consecutive Von Frey filaments to elicit a reflex withdrawal response (i.e. a brief paw flick).
Surgical procedure. The animals were surgically prepared over 2 days. Each rat was anaesthetised as necessary with isofluorane in […]. The surface around the incision site was shaved and sterilised. Under aseptic conditions, an incision was made in the skin over the top of the right tibia to expose the tibia head with minimal damage. […]

[1] = 15 mg/kg p.o. twice daily, Day 6, left paw
[2] = 15 mg/kg p.o. twice daily, Day 6, right paw
[3] = 15 mg/kg p.o. twice daily, Day 12, left paw
[4] = 15 mg/kg p.o. twice daily, Day 12, right paw
[5] = 15 mg/kg p.o. twice daily, Day 14, left paw
[6] = 15 mg/kg p.o. twice daily, Day 14, right paw
[7] = 15 mg/kg p.o. twice daily, Day 19, left paw
[8] = 15 mg/kg p.o. twice daily, Day 19, right paw
[9] = 15 mg/kg p.o. twice daily, Day 21, left paw
[10] = 15 mg/kg p.o. twice daily, Day 21, right paw
[11] = 15 mg/kg p.o. twice daily, Pre-Surgery, left paw
[12] = 15 mg/kg p.o. twice daily, Pre-Surgery, right paw
[13] = 30 mg/kg p.o. twice daily, Day 6, left paw
[14] = 30 mg/kg p.o. twice daily, Day 6, right paw
[15] = 30 mg/kg p.o. twice daily, Day 12, left paw
[16] = 30 mg/kg p.o. twice daily, Day 12, right paw
[17] = 30 mg/kg p.o. twice daily, Day 14, left paw
[18] = 30 mg/kg p.o. twice daily, Day 14, right paw
[19] = 30 mg/kg p.o. twice daily, Day 19, left paw
[20] = 30 mg/kg p.o. twice daily, Day 19, right paw
[21] = 30 mg/kg p.o. twice daily, Day 21, left paw
[22] = 30 mg/kg p.o. twice daily, Day 21, right paw
[23] = 30 mg/kg p.o. twice daily, Pre-Surgery, left paw
[24] = 30 mg/kg p.o. twice daily, Pre-Surgery, right paw
[25] = 45 mg/kg p.o. twice daily, Day 6, left paw
[26] = 45 mg/kg p.o. twice daily, Day 6, right paw
[27] = 45 mg/kg p.o. twice daily, Day 12, left paw
[28] = 45 mg/kg p.o. twice daily, Day 12, right paw
[29] = 45 mg/kg p.o. twice daily, Day 14, left paw
[30] = 45 mg/kg p.o. twice daily, Day 14, right paw
[31] = 45 mg/kg p.o. twice daily, Day 19, left paw
[32] = 45 mg/kg p.o. twice daily, Day 19, right paw
[33] = 45 mg/kg p.o. twice daily, Day 21, left paw
[34] = 45 mg/kg p.o. twice daily, Day 21, right paw
[35] = 45 mg/kg p.o. twice daily, Pre-Surgery, left paw
[36] = 45 mg/kg p.o. twice daily, Pre-Surgery, right paw

COC1=C(OC)C(O)C(C/C=C(\C)CC/C=C(\C)CCC=C(C)C)C(C)C1=O (stereo not drawn) [Compound 1, 4-hydroxy-2,3-dimethoxy-6-methyl-5-(3,7,11-trimethyldodeca-2,6,10-trienyl)cyclohex-2-enone]
Withdrawal Threshold (Log 10 (force (g) × 10 000)) on Day Post-Operative [1]: 5.33 Log 10 (force (g) × 10 000)
Withdrawal threshold (g) on day post-operative [1]: 21.65 g
Withdrawal Threshold (Log 10 (force (g) × 10 000)) on Day Post-Operative [2]: 5.31 Log 10 (force (g) × 10 000)
Withdrawal threshold (g) on day post-operative [2]: 20.81 g
Withdrawal Threshold (Log 10 (force (g) × 10 000)) on Day Post-Operative [3]: 5.19 Log 10 (force (g) × 10 000)
Withdrawal threshold (g) on day post-operative [3]: 16.27 g
Withdrawal Threshold (Log 10 (force (g) × 10 000)) on Day Post-Operative [4]: 4.99 Log 10 (force (g) × 10 000)
Withdrawal threshold (g) on day post-operative [4]: 11.12 g
Withdrawal Threshold (Log 10 (force (g) × 10 000)) on Day Post-Operative [5]: 5.18 Log 10 (force (g) × 10 000)
Withdrawal threshold (g) on day post-operative [5]: 16.61 g
Withdrawal Threshold (Log 10 (force (g) × 10 000)) on Day Post-Operative [6]: 4.91 Log 10 (force (g) × 10 000)
Withdrawal threshold (g) on day post-operative [6]: 9.97 g
Withdrawal Threshold (Log 10 (force (g) × 10 000)) on Day Post-Operative [7]: 5.08 Log 10 (force (g) × 10 000)
Withdrawal threshold (g) on day post-operative [7]: 13.83 g
Withdrawal Threshold (Log 10 (force (g) × 10 000)) on Day Post-Operative [8]: 4.76 Log 10 (force (g) × 10 000)
Withdrawal threshold (g) on day post-operative [8]: 8.36 g
Withdrawal Threshold (Log 10 (force (g) × 10 000)) on Day Post-Operative [9]: 5.06 Log 10 (force (g) × 10 000)
Withdrawal threshold (g) on day post-operative [9]: 13.74 ± 2.42 g and 13.74 g
Withdrawal Threshold (Log 10 (force (g) × 10 000)) on Day Post-Operative [10]: 4.80 Log 10 (force (g) × 10 000)
Withdrawal threshold (g) on day post-operative [10]: 7.82 ± 1.43 g and 7.82 g
Withdrawal Threshold (Log 10 (force (g) × 10 000)) on Day Post-Operative [11]: 5.33 Log 10 (force (g) × 10 000)
Withdrawal threshold (g) on day post-operative [11]: 21.79 g
Withdrawal Threshold (Log 10 (force (g) × 10 000)) on Day Post-Operative [12]: 5.33 Log 10 (force (g) × 10 000)
Withdrawal threshold (g) on day post-operative [12]: 21.79 g
Withdrawal Threshold (Log 10 (force (g) × 10 000)) on Day Post-Operative [13]: 5.35 Log 10 (force (g) × 10 000)
Withdrawal threshold (g) on day post-operative [13]: 22.55 g
Withdrawal Threshold (Log 10 (force (g) × 10 000)) on Day Post-Operative [14]: 5.32 Log 10 (force (g) × 10 000)
Withdrawal threshold (g) on day post-operative [14]: 21.02 g
Withdrawal Threshold (Log 10 (force (g) × 10 000)) on Day Post-Operative [15]: 5.24 Log 10 (force (g) × 10 000)
Withdrawal threshold (g) on day post-operative [15]: 18.34 g
Withdrawal Threshold (Log 10 (force (g) × 10 000)) on Day Post-Operative [16]: 5.00 Log 10 (force (g) × 10 000)
Withdrawal threshold (g) on day post-operative [16]: 11.15 g
Withdrawal Threshold (Log 10 (force (g) × 10 000)) on Day Post-Operative [17]: 5.16 Log 10 (force (g) × 10 000)
Withdrawal threshold (g) on day post-operative [17]: 15.71 g
Withdrawal Threshold (Log 10 (force (g) × 10 000)) on Day Post-Operative [18]: 4.86 Log 10 (force (g) × 10 000)
Withdrawal threshold (g) on day post-operative [18]: 8.55 g
Withdrawal Threshold (Log 10 (force (g) × 10 000)) on Day Post-Operative [19]: 5.12 Log 10 (force (g) × 10 000)
Withdrawal threshold (g) on day post-operative [19]: 14.04 g
Withdrawal Threshold (Log 10 (force (g) × 10 000)) on Day Post-Operative [20]: 4.91 Log 10 (force (g) × 10 000)
Withdrawal threshold (g) on day post-operative [20]: 9.07 g
Withdrawal Threshold (Log 10 (force (g) × 10 000)) on Day Post-Operative [21]: 5.05 Log 10 (force (g) × 10 000)
Withdrawal threshold (g) on day post-operative [21]: 11.40 ± 0.81 g and 11.40 g
Withdrawal Threshold (Log 10 (force (g) × 10 000)) on Day Post-Operative [22]: 4.82 Log 10 (force (g) × 10 000)
Withdrawal threshold (g) on day post-operative [22]: 8.15 ± 1.43 g and 8.15 g
Withdrawal Threshold (Log 10 (force (g) × 10 000)) on Day Post-Operative [23]: 5.33 Log 10 (force (g) × 10 000)
Withdrawal threshold (g) on day post-operative [23]: 21.79 g
Withdrawal Threshold (Log 10 (force (g) × 10 000)) on Day Post-Operative [24]: 5.33 Log 10 (force (g) × 10 000)
Withdrawal threshold (g) on day post-operative [24]: 21.79 g
Withdrawal Threshold (Log 10 (force (g) × 10 000)) on Day Post-Operative [25]: 5.35 Log 10 (force (g) × 10 000)
Withdrawal threshold (g) on day post-operative [25]: 22.55 g
Withdrawal Threshold (Log 10 (force (g) × 10 000)) on Day Post-Operative [26]: 5.35 Log 10 (force (g) × 10 000)
Withdrawal threshold (g) on day post-operative [26]: 22.55 g
Withdrawal Threshold (Log 10 (force (g) × 10 000)) on Day Post-Operative [27]: 5.31 Log 10 (force (g) × 10 000)
Withdrawal threshold (g) on day post-operative [27]: 20.81 g
Withdrawal Threshold (Log 10 (force (g) × 10 000)) on Day Post-Operative [28]: 5.16 Log 10 (force (g) × 10 000)
Withdrawal threshold (g) on day post-operative [28]: 15.98 g
Withdrawal Threshold (Log 10 (force (g) × 10 000)) on Day Post-Operative [29]: 5.35 Log 10 (force (g) × 10 000)
Withdrawal threshold (g) on day post-operative [29]: 22.48 g
Withdrawal Threshold (Log 10 (force (g) × 10 000)) on Day Post-Operative [30]: 5.30 Log 10 (force (g) × 10 000)
Withdrawal threshold (g) on day post-operative [30]: 20.41 g
Withdrawal Threshold (Log 10 (force (g) × 10 000)) on Day Post-Operative [31]: 5.29 Log 10 (force (g) × 10 000)
Withdrawal threshold (g) on day post-operative [31]: 20.12 g
Withdrawal Threshold (Log 10 (force (g) × 10 000)) on Day Post-Operative [32]: 5.24 Log 10 (force (g) × 10 000)
Withdrawal threshold (g) on day post-operative [32]: 18.58 g
Withdrawal Threshold (Log 10 (force (g) × 10 000)) on Day Post-Operative [33]: 5.29 Log 10 (force (g) × 10 000)
Withdrawal threshold (g) on day post-operative [33]: 20.12 ± 1.67 g and 20.12 g
Withdrawal Threshold (Log 10 (force (g) × 10 000)) on Day Post-Operative [34]: 5.25 Log 10 (force (g) × 10 000)
Withdrawal threshold (g) on day post-operative [34]: 19.06 ± 2.17 g and 19.06 g
Withdrawal Threshold (Log 10 (force (g) × 10 000)) on Day Post-Operative [35]: 5.33 Log 10 (force (g) × 10 000)
Withdrawal threshold (g) on day post-operative [35]: 21.79 g
Withdrawal Threshold (Log 10 (force (g) × 10 000)) on Day Post-Operative [36]: 5.33 Log 10 (force (g) × 10 000)
Withdrawal threshold (g) on day post-operative [36]: 21.79 g
